Measurements taken from US20100040667A1, “METHOD OF TREATING BONE CANCER” (ED. GEISTLICH SOEHNE AG FUER CHEMISCHE INDUSTRIE, priority 2006, published 2010).

Tests used:
[1] = Solubility of taurolidine in water; format: physicochemical; conditions: room temperature
From the text: The preferred active substances are methylol transfer agents such as taurolidine, taurultam, mixtures thereof or equilibriums thereof. Where taurolidine and/or taurultam is used, its concentration in the aqueous solution absorbed in the gel is preferably 0.5% to 5% by weight, e.g. about 1 to 4%. Where the gel is in the form of a granulate, 2-4% by weight taurolidine and/or taurultam is preferred, more preferably, 4% taurolidine and/or taurultam by weight. Taurolidine is only about 2-3% soluble in water at room temperature, so that at higher concentrations, some material will be present as a suspension of, for example, fine taurolidine crystals.

[2] = tested on: osteosarcoma cell lines SAOS-2 (HTB-85), U2OS (HTB-96), HOS, 143B, LM5, Hu09 WT, Hu09H3, Hu09 L13, MG-63 and MG-63 M8; test: Taurolidine tested against 10 osteosarcoma cell lines; format: cell-based
Experimental: Taurolidine was tested against 10 oestosarcoma cell lines at concentrations of 50, 100 and 200 uM taurolidine. The cell lines were SAOS-2 (HTB-85), U2OS (HTB-96), HOS, 143B, LM5, Hu09 WT, Hu09H3, Hu09 L13, MG-63 and MG-63 M8.

soluble in water [1]: 2-3%
SMILES: O=S1(=O)CCN(CN2CCS(=O)(=O)NC2)CN1 [Taurolidine, taurolidine]
apoptotic cells ([2]; 50, 100 and 200 uM taurolidine): dose-dependent increase in apoptic cells
inhibition of osteosarcoma cell lines ([2]; 50, 100 and 200 uM taurolidine, 10 cell lines): inhibited all osteosarcoma cell lines tested
mechanism of apoptosis ([2]; osteosarcoma cell lines): caspase-dependent
